Data as given in a melting point compilation (Tetko et al.; mined from patent text by program, amines drawn as free bases though some values may be those of a salt).

| melting point [°C] | SMILES |
| --- | --- |
| 140 | C#Cc1cc(F)c(-n2c(=O)cc(C(F)(F)F)n(C)c2=O)cc1OCC |
| 157 to 158 | CCC(=O)C1=C(O)CC(c2ccc(Oc3ccc(S(C)(=O)=O)cc3)cc2)CC1=O (centres undefined) |
| 115 to 117 | CCNC(=O)c1ccsc1 |
| > 193 | Nc1nc(S(N)(=O)=O)c2ncn(C3OC(CO)C(O)C3O)c2n1 (centres undefined) |
| 340 to 342 | O=C1CC(c2ccc(O)cc2)=Nc2ccc(N3CCOCC3)cc21 |
| 139 to 140 | CS(=O)(=O)c1ccc(C2=C(c3ccccc3)C(=O)C2)cc1 |
| 76.5 to 77.6 | CCn1nc(-c2ccc(OC)cc2)cc(C(=O)OC)c1=O |
| 82 | C=CC(CC(O)C(CC(C)C)NC(=O)C(Cc1c[nH]cn1)NC(=O)C(Cc1ccccc1)NC(=O)OC(C)(C)C)C(C)C (centres undefined) |
| 92 to 93 | CCS(=O)(=O)c1cc(C(C)(C)C)cc(C=O)c1O |
| 92 to 94 | FC(F)(F)c1cc(Cl)c(-n2cc(C#CBr)c(C(F)(F)F)n2)c(Cl)c1 |
| 211 to 213 | CCn1c2s[nH]c(=O)c2c(=O)c2cc(F)c(F)c(OC(F)F)c21 |
| 55.9 to 56.8 | O=S(=O)(c1ccccc1)C1CCCO1 (centres undefined) |
| 210 | Cc1cc(-c2ccc(Cl)c(Cl)c2)nc(-n2cnc(-c3cccc(S(N)(=O)=O)c3)c2)n1 |
| 174 to 175 | CCOC(=O)CC(NCCCNC(C)(C)C)C(=O)O (centres undefined) |
| 130 to 132 | CCC(OC(=O)C1CC1)c1ccc(Cl)c2nc3n(c12)CCCN3c1ccc(OC)cc1Cl (centres undefined) |
| 187 to 190 | CCOC(=O)CCCCCCn1c(=O)c(=O)[nH]c2cc(Br)ccc21 |
| 184 to 192 | COc1ccc(Cl)cc1N1CCN(CCCNC(=O)c2cccc3c(=O)c(C)c(C(N)=O)oc23)CC1 |
| 198 to 200 | OC(c1ccc(F)cc1)(c1ccc(F)cc1)c1ncc[nH]1 |
| 206 to 207 | COCCN1CCc2ccc(Nc3ncc(Cl)c(Nc4ccc(OC)c5c4C(=O)N(C)C5)n3)cc2CC1 |
| 211 to 212 | CCOC(=O)c1cc(Oc2ccc3c(C(=O)O)cccc3c2)ncn1 |
| 213 to 214 | CC(/C=C/c1c(C)oc(C)c1C)=C\C=C\C(C)=C\C(=O)O |
| 146 to 152 | COc1ccc(N2CCN(c3c(C)c(C)c4c(c3C)CC(C)(CNC(C)=O)O4)CC2)cc1 (centres undefined) |
| 139 to 141 | COc1cc2ncc(C#N)c(Nc3ccc(Cl)cc3F)c2cc1OC |

| melting point [°C] | SMILES |
| --- | --- |
| 140 to 142 | O=C(O)c1cc2ccccc2nc1N[C@H](Cc1ccccc1)C(=O)O |
| 144 to 148 | CC(OCc1cccnc1)C(=O)Nc1ccc(C(=O)Nc2ccccc2N)cc1 (centres undefined) |
| 126 to 128 | O=[N+]([O-])c1ccc(OC23CC4CC(CC(C4)C2)C3)c2ccccc12 |
| 183 to 184 | CCc1nnc(/C=C/c2cn(-c3ccccc3)nc2OCc2ccc(OCc3nc(-c4ccco4)oc3C)c(OC)c2)o1 |
| 94 to 97.5 | COC(=O)c1ncsc1S(=O)(=O)Cl |
| 76 to 78 | CCCC(=O)C1C(=O)CC(c2ccc(C)cc2)CC1=O (centres undefined) |
| 124 to 126 | CC(=O)c1ccc(CCNS(=O)(=O)c2ccc(C)cc2)cc1 |
| 121 to 123 | Cc1cc2c(c(C)c1NC(=O)OC(C)(C)C)CC(C)(C)O2 |
| 103 to 105 | COc1cc(CBr)c(Br)cc1OCc1ccccc1 |
| 125 to 126 | Nc1ccc(Br)n2nc(SCc3ccccc3)nc12 |
| 221 to 223 | Brc1ccc(Br)c2nc(-c3ccccc3)c(-c3ccccc3)nc12 |
| 185 to 187 | CCCCC(=O)NNC(=O)c1ccc([N+](=O)[O-])cc1 |
| 105 to 108 | C[C@H](C#Cc1cc(Cc2ccc(F)cc2)cs1)N(O)C(N)=O |
| 70 to 71.5 | CC1C(=O)Oc2c(Oc3ccccc3F)cccc21 (centres undefined) |
| 129 to 130 | CC(NC(=O)c1ccccc1I)C(O)c1ccccc1 (centres undefined) |
| 102 to 104 | N#Cc1cccc(-c2nc(S(=O)(=O)C(F)(F)F)cc3cccnc23)c1 |
| 274 to 275 | O=c1nc(Nc2ccc(Br)cc2)sc2ncccc12 |
| 114 to 115 | CCOC(=O)COc1cc2c(c(Cl)c1Cl)C(=O)C(c1ccccc1)C2 (centres undefined) |
| 260 | N#Cc1ccc2oc3ncccc3c(=O)c2c1 |
| 166 | Cc1ccc(S(=O)(=O)N2[C@@H](C(=O)O)CC[C@H]2c2ccc(F)cc2)cc1 (racemic) |
| 94 to 96 | CCc1nn(Cc2noc(O)n2)c(CC)c1Oc1cc(Cl)cc(Cl)c1 |
| 75.6 to 78.9 | COc1cccc(C(=O)C=Cc2ccc(OC)cc2OC)c1 |
| 180 | Cc1cc(C)nc(NC(=O)NS(=O)(=O)c2ccccc2O)n1 |

| melting point [°C] | SMILES |
| --- | --- |
| 238 to 239 | O=C(O)COc1ccc(C(=O)CCN2CCN(c3ccncc3)CC2)cc1 |
| 144 to 146 | COc1ccc(-c2nc3cc(Cl)cc(C#CCN(OC(=O)OC(C)(C)C)C(=O)OC(C)(C)C)c3o2)cc1OC1CCCC1 |
| 104 to 105 | COc1ccc(C2=NN(CCCCCCN3C(=O)c4ccccc4C3=O)C(=O)[C@H]3CC=CC[C@@H]23)cc1OC (relative stereo) |
| 209 to 211 | O=C(O)COc1cc2cc(-c3ccccc3)sc2c(Cl)c1Cl |
| 191 to 192 | COc1cc(Cl)c(N=C=S)cc1C(=O)Nc1c(C)cccc1C |
| 202 to 203 | Cc1c[nH]c(-c2ccc(OCC(O)CNC(C)(C)C)cc2)n1 (centres undefined) |
| 236 to 237 | COc1ccc(C(=O)Oc2ccc(O)cc2)cc1C12CC3CC(CC(C3)C1)C2 |
| 135 to 137 | CC(C)=CC(=O)Nc1c(C(O)(C(F)(F)F)C(F)(F)F)ccc2ccccc12 |
| 182 to 183 | CS(=O)(=O)Nc1cc2occc(=O)c2cc1Oc1ccc(F)cc1F |
| 198 to 200 | Cc1cc(C#N)cnc1N |
| 108 to 110 | O=C(Nc1ccc(-c2ncon2)cc1)OCC(Cl)(Cl)Cl |
| 35 to 37 | CCOC(=O)C(C)Oc1ncn(-c2cccc(F)c2)n1 (centres undefined) |
| 85.5 to 89 | CCN1C(=O)CCC2(CCC(=O)c3ccccc32)C1=O (centres undefined) |
| 189 | NS(=O)(=O)c1cccc(-c2cn(-c3nc(-c4ccc(Cl)s4)cc(C(F)(F)F)n3)cn2)c1 |
| 158 to 160 | CCNC(=O)c1cnn(-c2ccccc2)c1Br |
| 105 to 107 | CN(C)C(=O)N(C(=O)Nc1ccccc1)c1ccccc1 |
| 220 to 230 | Cc1ccc([N+](=O)[O-])c2c1C(N1C(=O)c3ccccc3C1=O)CCC2=O (centres undefined) |
| 236 | COc1cc(N)c(Cl)cc1C(=O)NC1CCN(CCCC2(C)NC(=O)NC2=O)CC1OC (centres undefined) |
| 167 to 169 | CCOC(=O)C(C)(C)n1c(=O)[nH]c2ccc(F)cc2c1=O |
| 122 to 124 | COc1cc(Nc2c(C#N)cnc3cc(NCCCC4CCN(C)CC4)c(OC)cc23)c(Cl)cc1Cl |
| 206 | O=C(NO)c1ccc(C(=O)Nc2cccc(Nc3nc(-c4cccnc4)cs3)c2)cc1 |
| 242 to 245 | Cc1cccc(Nc2cc(Nc3ccc(O)cc3)ncn2)c1 |
| 112 | CC(C)CCNC(=O)c1ccccc1-c1ccccc1CNC(=O)OCc1ccccc1 |

| melting point [°C] | SMILES |
| --- | --- |
| 254 to 256 | CCc1noc(-c2cc3c(cn2)[nH]c2cccc(Oc4ncccn4)c23)n1 |
| 141 to 142 | CC(C)(C)C1=C(c2ccc(C(=O)N3CCOCC3)c(O)c2)OCC1(C)C |
| 342 | CC1(C)N=C(NC#N)N=C(NC(=O)c2nc(Cl)c(N)nc2N)N1 |
| 63 to 68 | O=C1OC(=O)[C@@H]2CCC[C@H]12 |
| 171 to 172 | COC(=O)/C=C/n1cnc2ccc(Cl)cc2c1=O |
| > 250 | O=c1ccc(-c2c(-c3ccccc3)nn3ccncc23)c[nH]1 |
| 213 to 215 | C/C(=C/C#N)c1ccc2c(c1)C(C)(C)OC(=O)N2 |
| 214 to 216 | CC(C)(c1ccc(Oc2ccc(N3C(=O)C=CC3=O)cc2)cc1)c1ccc(C(C)(C)c2ccc(Oc3ccc(N4C(=O)C=CC4=O)cc3)cc2)cc1 |
| 242 to 245 | CN1C(C(=O)Nc2cccccc2=O)=C(O)c2sccc2S1(=O)=O |
| 98 to 100 | C=CC(=O)OC(COc1ccc(C(=O)c2ccccc2)c(O)c1)COc1ccc(C(=O)c2ccccc2)c(O)c1 |
| 202 to 203 | COc1cccc(Nc2n[nH]c3ncnc(Nc4cccc(Cl)c4)c23)c1 |
| 118 to 120 | Clc1ccc2c(c1)C=C(n1ccnc1)CO2 |
| 75 to 76.5 | C=CCOc1ccc(Cl)cc1NC(=O)Cc1ccc(OC)c(OC2CCCC2)c1 |
| 69 | O=[N+]([O-])c1ccc(Cl)cc1Cc1ccccn1 |
| 148 to 151 | CC(C)C[C@H](NC(=O)[C@H](Cc1ccccc1)NC(=O)C1CCCC1)C(=O)O |
| 130 | O=C(Nc1ccccc1)O[C@@H]1CN=C(c2ccc(Cl)c(Cl)c2)O[C@H]1c1ccccc1 (racemic) |
| 259 | O=C(NNc1ccccc1)c1ccccc1O |
| 122 to 127 | CCCCCCCCCCCCCCCCCCOc1cc(OC(C)=O)cc(N(CC(=O)O)CC(=O)O)c1 |
| 100 to 102 | COc1ccc(-c2sc3cc(OC)ccc3c2C(=O)c2ccccc2)cc1 |
| 137 to 138 | CCOCN1N=NC(=S)C1C (centres undefined) |
| 139 to 141 | CN1CCN(c2nn(S(=O)(=O)c3ccccc3)c3cc(Cl)ccc23)CC1 |
| 100 to 105 | COC(=O)c1ccc(S(C)(=O)=O)c(C2=NOC(C)(OC)C2)c1Cl (centres undefined) |

| SMILES | melting point [°C] |
| --- | --- |
| COc1cc(C2C3=C(CNC3=O)Nc3cc4c(cc32)OCO4)cc(OC)c1OC (centres undefined) | 244 |
| O=C(NC1N=C(c2ccccc2F)c2ccccc2NC1=S)c1ccc(Cl)cc1 (centres undefined) | 156 to 158 |
| CCCN1CCC23c4cccc(O)c4OC2C2CCC3(C1)C(COC)C2 (centres undefined) | 130 to 131 |
| Cc1cccc2[nH]c(=O)n(CCCN3CC=C(c4cccc(Cl)c4)CC3)c(=O)c12 | 180 to 183 |
| CCOc1cc2c(C[C@H](C)N)c3n(c2cc1F)CCC3 | 107 |
| COC(=O)NS(=O)(=O)Oc1c(C(C)C)cccc1C(C)C | 92 to 95 |
| C1=C(c2c[nH]c3ccccc23)CCN(CC2COc3ccc4ncncc4c3O2)C1 (centres undefined) | 204 to 207 |
| Cc1cc(Cl)c(N=C2NCCN2)cc1[N+](=O)[O-] | 198 to 201 |
